{
  "source": "ChEMBL document CHEMBL4665644",
  "about": "“L-DOPA-quinone Mediated Recovery from GIRK Channel Firing Inhibition in Dopaminergic Neurons” (ACS Med Chem Lett, 2019)",
  "key": {"[1]": {"biological_target": "T1, G protein-activated inward rectifier potassium channel 2 (Mus musculus) (UniProt P48542)", "T1 sequence (whole entry)": "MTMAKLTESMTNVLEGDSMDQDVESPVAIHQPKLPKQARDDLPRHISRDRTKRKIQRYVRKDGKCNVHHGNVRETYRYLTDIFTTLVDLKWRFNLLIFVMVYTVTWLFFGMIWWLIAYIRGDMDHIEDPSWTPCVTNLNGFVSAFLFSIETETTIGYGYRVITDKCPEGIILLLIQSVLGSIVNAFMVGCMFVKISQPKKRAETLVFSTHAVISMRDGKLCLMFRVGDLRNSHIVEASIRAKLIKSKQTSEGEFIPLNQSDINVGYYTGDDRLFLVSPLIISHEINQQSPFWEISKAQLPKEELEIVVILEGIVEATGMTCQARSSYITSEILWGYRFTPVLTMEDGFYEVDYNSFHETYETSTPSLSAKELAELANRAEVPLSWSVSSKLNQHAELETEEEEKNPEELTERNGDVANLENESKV", "assay": "Stabilization of GIRK2 channel in C57BL6 mouse brain DAergic neurons assessed as recovery of GABAB receptor stimulation-mediated firing inhibition treated with 100 uM dopamine and 10 uM sulpiride D2 antagonist under continuous perfusion followed by 300 nM baclofen treated at 300 uM measured after 15 mins by multi-electrode array (reference value: 24.94 +-/ 14.46%)", "format": "tissue-based", "set-up": "scale not given: the % may be the effect or the level left"}, "[2]": {"biological_target": "T1, G protein-activated inward rectifier potassium channel 2 (Mus musculus)", "assay": "Stabilization of GIRK2 channel in C57BL6 mouse brain DAergic neurons assessed as recovery of D2 receptor stimulation-mediated firing inhibition in presence of 100 nM quinpirole under continuous perfusion followed by treated at 300 uM measured after 15 mins by multi-electrode array (reference value: 4.07 +-/ 3.6%)", "format": "tissue-based", "set-up": "scale not given: the % may be the effect or the level left", "details": "[…]"}},
  "data": [
    {"smiles": "N[C@@H](CC1=CC(=O)C(=O)C=C1)C(=O)O", "values": [
      {"measurement": "Activity", "setting": "[1]", "value": 73.6, "unit": "%"},
      {"measurement": "Activity", "setting": "[2]", "value": 81.8, "unit": "%"}
    ]}
  ]
}
